The values below come from patent publication US6656942B2, “Orally active salts with tyrosine kinase activity” (Merck & Co., Inc., priority 2000, dated 2003).

Holding throughout (format): physicochemical
Data set [1] is described as follows: Solubility and pH of salts of 4-9 prepared in situ. The following applies: for solubility: 1.05 mole equivalents of acid, 100 μL of water, spun overnight, HPLC; for pH: pH of the liquid residue of the sample. As to the method:
Two forms of the mesylate salt were made: Salt 4-9A above and Salt 4-9B below. Numerous salts of 4-9 were prepared in situ and analyzed using the procedure outlined below,
3) The reagents were mixed with a Vortex mixer and left to stand at room temperature or warmed if needed to dissolve the solid.
4) 100 μL of water were added to suspend the solid.
5) Tube was then covered with aluminum foil and spun overnight on a rotator.
6) The tube was then spun in a centrifuge for 10 minutes at 10,000 RPM.
7) An aliquot was removed from the sample and dried with nitrogen overnight to produce the solid residue (salt) which was analyzed via microscopy and DCS.
8) The liquid residue from the remaining sample was used to measure pH and determine the concentration of salt by HPLC.

Data set [2] in a line: Measurement of salt solubility: free base 1-11 treated with acid, suspended in water, HPLC. As to conditions: for pH: pH in equilibrium with the solid phase, most likely lower than pH of the salt in water; for solubility: salt made in situ with 1.05-1.1 molar equivalence of acid, suspended in water several days, method overestimates the solubility. As to the method: The pH and concentration of the compound in equilibrium with the solid phase was measured by HPLC (UV-Vis detection).

Data set [3] in a line: Solubility of free base 1-11 at room temperature in 0.05M aqueous buffers, water, organic solvents and HPβCD. As to the method:
The solubility of 1-11 at room temperature was determined in 0.05M aqueous buffers, water and several organic solvents.

Data set [4] is described as follows: Solubility of crystalline mesylate salts 1-11A and 1-11B. As to the method: The amorphous mesylate salt was recrystallized from 50:50 Ethanol:THF to give a crystalline powder (Salt 1-11A). The X-ray powder diffraction pattern (XRPD) of the recrystallized mesylate salt 1-11A (FIG. 2) is indicative of crystalline material with multiple diffraction peaks between 5° and 30° 2-theta.
A second batch of crystalline mesylate salt (Salt 1-11B) was obtained by the following procdeure. To a stirred suspension of 1-11 (4.026 g, 9.22 mmol) in MeOH was slowly added at room temperature (RT) one equivalent of a 0.3M solution of methanesulfonic acid (30.73 mL). After all the solid had dissolved, the mixture was filtered into a flask and concentrated under reduced pressure while cooled to about 10° C. The resulting solid was suspended with 200 mL of ethylacetate, filtered, and dried to afford the mesylate salt. […] This crystalline form is different by XRPD than the one recrystallized from the amorphous salt in EtOH/THF (Salt 1-11A).

The nature of data set [5]: Aqueous solubility at room temperature, quantitated by HPLC. The following applies: for aqueous solubility at room temperature / solubility: water, HPLC, room temperature; for crystallization out of the concentrated aqueous solution: time scale of the experiment (24 hours); for solubility: thermodynamic from solid. As to the method: The free base 2-1 is a yellow powder. […] The crystals appear plate-like with most of the particles below 10 microns. […] The aqueous solubility was measured using HPLC to quantitate the compound in suspension.
The mesylate salt 2-1A is a yellow powder. […] A broad non-reversible endotherm centered around 87° C. is attributed to loss of solvent/moisture. The aqueous solubility was measured using HPLC to quantitate the compound.
The HCl salt 2-1B was also a yellow powder. […] This indicates the presence of both amorphous and crystalline material. […] The aqueous solubility was measured using HPLC to quantitate the compound.
The free base is a yellow powder which contains particles that are birefringent under polarized light indicating the presence of crystalline material. […] The aqueous solubility was measured using HPLC to quantitate the compound in an aqueous suspension.
The HCl salt is also a yellow solid, which contains particles that are birefringent under polarized light indicating the presence of crystalline material. […] The aqueous solubility was measured using HPLC to quantitate the compound in suspension.
The yellow, mesylate salt was examined under polarized light by optical microscopy. […] It is possible that the small amount of crystalline solid went undetected by optical microscopy. The aqueous solubility was measured using HPLC to quantitate the compound in suspension.
This mesylate salt 4-9A, which is a yellow powder, was examined under polarized light by optical microscopy. The crystals appear birefringent under polarized light indicating crystallinity. The crystals appear plate-like with few agglomerates. […] The aqueous solubility was measured using HPLC to quantitate the compound in suspension.

Each structure is given as a SMILES string. Structures can show the parent of a compound that is named as a salt.

By solubility is commonly meant the concentration that dissolves in the medium under given conditions. Broadly, the aqueous solubility is how much of the substance goes into solution per volume. A low value points to a poorly soluble substance.

As to `COCCN(C)CCOc1ccc2[nH]c(-c3cc4ccccc4[nH]c3=O)cc2c1` [4-9 Free Base, 3-(5-{2-[(2-methoxyethyl)(methyl)amino]ethoxy}-1H-indol-2-yl)-2(1H)-quinolinone], the solubility in data set [1] (pH 6.75, thermodynamic from solid, read-out: Solubility) came to 75 µg/mL. Further, the pH in data set [1] was found to be 6.75.
For `CS(=O)(=O)N1CCN(Cc2ccc3[nH]c(-c4cc5ccccc5[nH]c4=O)cc3c2)CC1` [Acetate salt of 1-11], in data set [2], the pH is recorded as 3.3 and the solubility was 91 µg/mL.
Taken in the same sequence, the figures for `CS(=O)(=O)N1CCN(Cc2ccc3[nH]c(-c4cc5ccccc5[nH]c4=O)cc3c2)CC1` [Besylate salt of 1-11] were 2.4 and 3.8 µg/mL.
Taken in the same sequence, the figures for `CS(=O)(=O)N1CCN(Cc2ccc3[nH]c(-c4cc5ccccc5[nH]c4=O)cc3c2)CC1` [HBr salt of 1-11] were 2.9 and 200 µg/mL.
On to `CS(=O)(=O)N1CCN(Cc2ccc3[nH]c(-c4cc5ccccc5[nH]c4=O)cc3c2)CC1` [HCl salt of 1-11], for which, in data set [2], the pH is 2.3 and the solubility was 430 µg/mL.
Take `COCCN(C)CCOc1ccc2[nH]c(-c3cc4ccccc4[nH]c3=O)cc2c1` [HCl salt of 4-9]: in data set [1], the solubility was 22400 µg/mL and the pH is on record as 2.34.
For `CS(=O)(=O)N1CCN(Cc2ccc3[nH]c(-c4cc5ccccc5[nH]c4=O)cc3c2)CC1` [Maleate salt of 1-11], in data set [2], the pH came out at 2.5 and the solubility is 160 µg/mL.
Turning to `COCCN(C)CCOc1ccc2[nH]c(-c3cc4ccccc4[nH]c3=O)cc2c1` [Mesylate 4-9B], in data set [1], the solubility was 22000 µg/mL and the pH worked out at 5.08.
For the molecule `CS(=O)(=O)N1CCN(Cc2ccc3[nH]c(-c4cc5ccccc5[nH]c4=O)cc3c2)CC1` [Mesylate salt of 1-11], in data set [2], the pH is reported as 2.3 and the solubility is 580 µg/mL.
For `CS(=O)(=O)N1CCN(Cc2ccc3[nH]c(-c4cc5ccccc5[nH]c4=O)cc3c2)CC1` [Salt 1-11, 3-[5-(4-Methanesulfonyl-piperazin-1-ylmethyl)-1H-indol-2-yl]-1H-quinolin-2-one], the solubility came to 79 µg/mL in data set [3] (0.05 M carbonate buffer, pH 10.09, aqueous buffer, 0.05 M Carbonate, pHfinal 10.09, room temperature); 77 µg/mL in data set [3] (0.05 M carbonate buffer, pH 11.15, aqueous buffer, 0.05 M Carbonate, pHfinal 11.15, room temperature); 92 µg/mL in data set [3] (0.05 M citrate buffer, pH 3.23, aqueous buffer, 0.05 M Citrate, pHfinal 3.23, room temperature); 73 µg/mL in data set [3] (0.05 M citrate buffer, pH 4.15, aqueous buffer, 0.05 M Citrate, pHfinal 4.15, room temperature); 70 µg/mL in data set [3] (0.05 M citrate buffer, pH 5.07, aqueous buffer, 0.05 M Citrate, pHfinal 5.07, room temperature); 71 µg/mL in data set [3] (0.05 M citrate buffer, pH 6.01, aqueous buffer, 0.05 M Citrate, pHfinal 6.01, room temperature). For the same molecule, the solubility in data set [3] (0.05 M phosphate buffer, pH 6.96, aqueous buffer, 0.05 M Phosphate, pHfinal 6.96, room temperature) was 71 µg/mL; in data set [3] (0.05 M phosphate buffer, pH 7.93, aqueous buffer, 0.05 M Phosphate, pHfinal 7.93, room temperature), 74 µg/mL; in data set [3] (0.05 M phosphate buffer, pH 8.86, aqueous buffer, 0.05 M Phosphate, pHfinal 8.86, room temperature) it was 73 µg/mL; in data set [3] (25% HPβCD in water, aqueous with cosolvent or surfactant or cyclodextrin, 25% HPβCD, native pH in water (pH = 7.5)), 168 µg/mL; in data set [3] (50% aqueous Can (probably ACN, acetonitrile), aqueous with cosolvent or surfactant or cyclodextrin, 50% Aqueous Can, room temperature), 60 µg/mL; in data set [3] (Water, room temperature), 0.03 µg/mL. Also, the solubility in data set [3] (organic solvent or mixture, Acetonitrile, room temperature) was 84 µg/mL; in data set [3] (organic solvent or mixture, Ethanol, room temperature), 19 µg/mL; in data set [3] (organic solvent or mixture, Isopropanol, room temperature) it was 6.5 µg/mL; in data set [3] (pH 2.45, simulated gastric fluid, 0.01 N HCl, pHfinal 2.45, room temperature), 400 µg/mL; in data set [3] (pH 3, aqueous with cosolvent or surfactant or cyclodextrin, 10% HPβCD, pH adjusted to ca. 3.0 with HCl), 1740 µg/mL; in data set [3] (pH 3, aqueous with cosolvent or surfactant or cyclodextrin, 15% HPβCD, pH adjusted to ca. 3.0 with HCl) it was 2350 µg/mL. Also, the solubility in data set [3] (pH 3, aqueous with cosolvent or surfactant or cyclodextrin, 20% HPβCD, pH adjusted to ca. 3.0 with HCl) is 3570 µg/mL; in data set [3] (pH 3, aqueous with cosolvent or surfactant or cyclodextrin, 25% HPβCD, pH adjusted to ca. 3.0 with HCl), 4560 µg/mL.
Consider `CS(=O)(=O)N1CCN(Cc2ccc3[nH]c(-c4cc5ccccc5[nH]c4=O)cc3c2)CC1` [Salt 1-11A], for which the solubility in data set [4] (Acetonitrile) came out at 63 µg/mL; in data set [4] (Isopropanol) it was 20 µg/mL; in data set [4] (Water) it was 173 µg/mL.
For `CN1CCN(Cc2ccc3[nH]c(-c4cc5ccccc5[nH]c4=O)cc3c2)CCC1=O` [Salt 2-1, 3-[5-(4-Methyl-5-oxo-[1,4]diazepan-1-ylmethyl)-1H-indol-2-yl]-1H-quinolin-2-one], in data set [5], the “aqueous solubility at room temperature” value is 28 µg/mL.
With `CN1CCN(Cc2ccc3[nH]c(-c4cc5ccccc5[nH]c4=O)cc3c2)CCC1=O` [Salt 2-1A, 4-Methyl-5-oxo-1-[2-(2-oxo-1.2-dihydro-quinolin-3-yl)-1H-indol-5-ylmethyl]-[1,4]diazepan-1-ium; methanesulfonate; methanesulfonate], in data set [5], the “crystallization out of the concentrated aqueous solution” value was “no crystallization was observed” and the “aqueous solubility at room temperature” value was “greater than 9.89 mg/mL”.
For `CN1CCN(Cc2ccc3[nH]c(-c4cc5ccccc5[nH]c4=O)cc3c2)CCC1=O.Cl` [Salt 2-1B, 4-Methyl-5-oxo-1-[2-(2-oxo-1,2-dihydro-quinolin-3-yl)-1H-indol-5-ylmethyl]-[1,4]diazepan-1-ium; methanesulfonate; chloride], in data set [5], the “crystallization out of the concentrated aqueous solution” value is “did not crystallize out” and the solubility was more than 10200 µg/mL.
Consider `O=C(CO)N1CCN(Cc2ccc3[nH]c(-c4cc5ccccc5[nH]c4=O)cc3c2)CC1` [Salt 3-10, 3-{5-[4-(2-Hydroxy-ethanoyl)-piperazin-1-ylmethyl]-1H-indol-2-yl}-1H-quinolin-2-one], for which, in data set [5], the “aqueous solubility at room temperature” value stood at 63.5 µg/mL.
Still for that read-out and setting: the same measure for `O=C(CO)N1CCN(Cc2ccc3[nH]c(-c4cc5ccccc5[nH]c4=O)cc3c2)CC1` [Salt 3-10A, 4-(2-Hydroxy-ethanoyl) 1-[2-(2-oxo-1,2-dihydro-quinolin-3-yl)-1H-indol-5-ylmethyl]-piperazin-1H-ium; chloride]: 1310 µg/mL.
On to `O=C(CO)N1CCN(Cc2ccc3[nH]c(-c4cc5ccccc5[nH]c4=O)cc3c2)CC1` [Salt 3-10B, 4-(2-Hydroxy-ethanoyl)-1-[2-(2-oxo-1,2-dihydro-quinolin-3-yl)-1H-indol-5-ylmethyl]-piperazin-1-ium; methanesulfonate], for which the “aqueous solubility at room temperature” value in data set [5] (methanesulfonate) was 2430 µg/mL.
For `COCCN(C)CCOc1ccc2[nH]c(-c3cc4ccccc4[nH]c3=O)cc2c1.CS(=O)(=O)O` [Salt 4-9A, 2-methoxy-N-methyl-N-(2-{[2-(2-oxo-1,2-dihydroquinolin-3-yl)-1H-indol-5-yl]oxy}ethyl)ethanaminium methanesulfonate], the solubility in data set [5] turned out to be 1500 µg/mL.
In the case of `CS(=O)(=O)N1CCN(Cc2ccc3[nH]c(-c4cc5ccccc5[nH]c4=O)cc3c2)CC1` [Sulfate salt of 1-11], in data set [2], the pH was 1.5 and the solubility is 130 µg/mL.
As to `COCCN(C)CCOc1ccc2[nH]c(-c3cc4ccccc4[nH]c3=O)cc2c1` [Sulfate salt of 4-9], in data set [1], the solubility worked out at 4350 µg/mL and the pH came to 1.40.
